According to patent US8217042B2, “Pyridopyrazines and their use as modulators of kinases” (Zentaris GmbH, priority 2005, dated 2012):
pEC50: −log10 of the molar value.

System: MDA-MB468
Test: XTT assay, anti-proliferative action, MDA-MB468
Assay type: cell-based
Settings: Homo sapiens, MDA-MB-468, 45 h, MDA-MB468 cells, 45 h incubation
Description: The principle of this test is based on the intracellular reduction of the tetrazolium dye XTT (sodium 3′-[1-(phenylaminocarbonyl)-3,4-tetrazolium]bis(4-methoxy-6-nitro)benzenenesulphonic acid, Sigma) to a formazan dye by mitochondrial dehydrogenases.
The dye is formed only by metabolically active cells; its photometrically measurable intensity is a quantitative indicator for the presence of living cells. The reduction in the dye formation as a result of incubation of the cells with substances serves as a parameter for the anti-proliferative action.
The tumour cell lines (ATCC) were seeded in 96-well microtitre plates in a defined cell count (5000 cells/well for BxPC3 and Hct116; 10 000 cells/well for MDA MB468), and then incubated overnight in an incubator at 37° C., 5% CO2 and 95% air humidity. The test substances were made up as stock solutions (10 mM) in DMSO. […] The cell plates were then incubated for 45 h in an incubator at 37° C., 5% CO2 and 95% air humidity.
For the detection reaction, the XTT substrate was admixed with PMS (N-methyldibenzopyrazine methylsulphate, Sigma) and added to the cells, so as to result in a final concentration of 325 μg of XTT/ml and 2.5 μg PMS/ml. The mixture was then incubated for 3 h at 37° C., 95% air humidity. Subsequently the formazan salt formed by cellular dehydrogenases was quantified at an absorption of 490 nm.
The evaluation of the % inhibition values was done by means of the following formula from the values for the optical densities measured in each case at 490 nm:
The controls were determined 8 times each, the substance samples twice each. 0% control contained no cells; the 100% control contained no test substance. The EC50 values were determined with GraphPadPrism.

## CCNC(=O)Nc1ccc2ncc(Nc3ccc(C)c(NS(C)(=O)=O)c3)nc2n1 [Compound 49, N-{5-[6-(3-Ethylurea)pyrido[2,3-b]pyrazin-3-ylamino]-2-methylphenyl}methanesulphonamide]
  pEC50: 4.80
